# According to patent US10576102B2, “KOC1-derived peptide and vaccine including same” (ONCOTHERAPY SCIENCE, INC., priority 2014, dated 2020):
# “Also recorded” adds a separate entry of the source.
# What was measured:
# [1] = test system: COS7 cells transfected with both KOC1 and HLA-A*3303; test: Specific CTL activity against target cells expressing KOC1 and HLA-A*3303; assay type: cell-based, African green monkey; details: for specific CTL activity of CTL clones against target cells expressing KOC1 and HLA-A*3303: COS7 transfected with both full-length KOC1 and HLA-A*3303; for specific CTL activity of CTL clones against control cells: COS7 transfected with either full-length KOC1 or HLA-A*3303
# Method: (§1) Specifically, peptide-pulsed C1R-A33 (1×10^4 cells/well) was prepared as the stimulator cell. The induced CTLs, i.e., CTL lines and CTL clones, were used as the responder cell. The IFN-gamma ELISPOT assay and IFN-gamma ELISA were performed according to the manufacturer's manual.
# A cDNA encoding the open-reading frame of a target gene or HLA-A*3303 was amplified by PCR. The PCR-amplified product was cloned into an expression vector. Either or both of the target gene-expressing vector and the HLA-A*3303-expressing vector were transfected into […], which is a cell line negative for the target gene and HLA, using Lipofectamine 2000 (Invitrogen) following the manufacturer's recommended protocol. Two days after transfection, the transfected cells were harvested using versene (Invitrogen), and used as the target cell for CTL activity assay (5×10^4 cells/well).
# The CTL lines and CTL clones established against KOC1-A33-9-485 (SEQ ID NO: 64) (a), KOC1-A33-9-286 (SEQ ID NO: 67) (b), and KOC1-A33-10-542 (SEQ ID NO: 77) (c) were investigated for their ability to recognize target cells expressing KOC1 and the HLA-A*3303 molecule. COS7 cells transfected with both full-length KOC1 and the HLA-A*3303 gene (a specific model of target cells expressing KOC1 and the HLA-A*3303 gene) were prepared as the target cell. COS7 cells transfected with either full-length KOC1 or HLA-A*3303 were prepared as the control.
# [2] = test system: peptide-pulsed C1R-A33; test: In vitro CTL induction, IFN-gamma ELISPOT assay (HLA-A*3303); assay type: cell-based, human; details: CTLs induced with peptide-pulsed DCs from HLA-A*3303-positive volunteers; day 21; vs peptide-pulsed C1R-A33, compared with unpulsed control
# Method: (§2) C1R (C1R-A33) that stably expresses HLA-A*3303 was used as a stimulator cell. A cDNA encoding the open-reading frame of HLA-A*3303 was amplified by PCR and cloned into an expression vector. C1R cells were transfected with the expression vector, and then selected using G418 (Invitrogen) for two weeks. The G418-selected cells were seeded into wells containing G418-added culture medium in a 96-well plate, and further cultured for 30 days. The exogenous HLA-A*3303 expression in C1R cells was verified by flow cytometric analysis.
# (§3) Monocyte-derived dendritic cells (DCs) were used as the antigen-presenting cell to induce a cytotoxic T lymphocyte (CTL) response against peptides presented on human leukocyte antigens (HLAs). As described in the other sections, DCs were generated in vitro (Nakahara S et al., Cancer Res 2003, 63(14): 4112-8). Specifically, peripheral-blood mononuclear cells isolated from healthy volunteers (HLA-A*3303-positive) with the Ficoll-Paque plus solution (Pharmacia) were separated by attaching to plastic tissue culture dishes (Becton Dickinson) and concentrated as a monocyte fraction. The monocyte-concentrated population was cultured in the presence of 1000 IU/ml granulocyte macrophage colony-stimulating factor (R&D System) and 1000 IU/ml interleukin(IL)-4 (R&D System) in an AIM-V medium (Invitrogen) containing 2% heat-inactivated autologous serum (AS). After seven days of culturing, the cytokine-induced DCs were pulsed with 20 micro-g/ml each of the synthesized peptides in an AIM-V medium at 37 degrees C. for three hours in the presence of 3 micro-g/ml beta 2-microglobulin. The generated cells appeared to express on their cell surface DC-associated molecules such as CD80, CD83, CD86 and HLA class II (data not shown). Next, these peptide-pulsed DCs were inactivated by X-ray irradiation (20 Gy), and mixed in a 1:20 ratio with autologous CD8^+ T cells obtained by positive selection using the CD8 Positive Isolation Kit (Dynal). These culture products were seeded in a 48-well plate (Corning). Each well was made to contain 1.5×10^4 peptide-pulsed DCs, 3×10^5 CD8^+ T cells and 10 ng/ml IL-7 (R&D System) in 0.5 ml of the AIM-V/2% AS medium. Three days later, these culture products were added with a final concentration of 20 IU/ml IL-2 (CHIRON). On day 7 and day 14, T cells were further stimulated with peptide-pulsed autologous DCs. The DCs were prepared every time by the same method as above. On day 21, after the third peptide stimulation, CTLs were examined against the peptide-pulsed C1R-A33 cell by a human interferon (IFN)-gamma enzyme-linked immunospot (ELISPOT) assay (Tanaka H et al., Br J Cancer 2001, 84(1): 94-9; Umano Y et. al., Br J Cancer 2001, 84(8): 1052-7; Uchida N et al., Clin Cancer Res 2004, 10(24): 8577-86; Suda T et al., Cancer Sci 2006, 97(5): 411-9; Watanabe T et al., Cancer Sci 2005, 96(8): 498-506).
# as §1
# [3] = test system: peptide-pulsed C1R-A33; test: IFN-gamma ELISA of CTL lines and CTL clones (HLA-A*3303); assay type: cell-based, human; details: for IFN-gamma production of CTL clones, ELISA: CTL clones by limiting dilution, peptide-pulsed C1R-A33; for IFN-gamma production of CTL lines, ELISA: target cells pulsed with the peptide vs not pulsed, C1R-A33
# Method: CTLs were propagated in culture using methods similar to those disclosed by Riddell et al. (Walter E A et al., N Engl J Med 1995, 333(16): 1038-44; Riddell S R et al., Nat Med 1996, 2(2): 216-23). The CTLs were co-cultured in a total of 25 ml AIM-V medium containing 5% AS (AIM-V/5% AS) and 40 ng/ml anti-CD3 antibody with two types of Mitomycin C-treated human B lymphoblastoid cell lines at 5×10^6 cells/flask. One day after beginning of the culturing, 120 IU/ml IL-2 was added to the culture. On days 5, 8 and 11, a fresh AIM-V/5% AS medium containing 30 IU/ml IL-2 was added to the culture (Tanaka H et al., Br J Cancer 2001, 84(1): 94-9; Umano Y et al., Br J Cancer 2001, 84(8): 1052-7; Uchida N et al., Clin Cancer Res 2004, 10(24): 8577-86; Suda T et al., Cancer Sci 2006, 97(5): 411-9; Watanabe T et al., Cancer Sci 2005, 96(8): 498-506).
# Dilution of CTLs was carried out to make 0.3, 1 and 3 cells/well in 96 round-bottomed microtiter plates (Nalge Nunc International). The CTLs were co-cultured with two types of Mitomycin C-treated human B lymphoblastoid cell lines at 1×10^4 cells/well in a total of 150 micro-1/well AIM-V/5% AS medium with 30 ng/ml anti-CD3 antibody and 125 IU/ml IL-2. Ten days later, IL-2 was added to the medium at 50 micro-1/well to reach a final concentration of 125 IU/ml. On day 14, the CTL activity was tested, and the CTL clones were propagated using the same method as described above (Uchida N et al., Clin Cancer Res 2004, 10(24): 8577-86; Suda T et al., Cancer Sci 2006, 97(5): 411-9; Watanabe T et al., Cancer Sci 2005, 96(8): 498-506).
# as §1
# [4] = test system: peptide-pulsed C1R-A11; test: In vitro CTL induction, IFN-gamma ELISPOT assay (HLA-A*1101); assay type: cell-based, human; details: CTLs induced with peptide-pulsed DCs from HLA-A*1101-positive volunteers; day 21; vs peptide-pulsed C1R-A11, compared with unpulsed control; listed as KOC1-A11-9-258
# Method: as §2, with “(C1R-A11)” for “(C1R-A33)”, “HLA-A*1101” for “HLA-A*3303”
# as §3, with “volunteers (HLA-A*1101-positive)” for “volunteers (HLA-A*3303-positive)”, “were inactivated,” for “were inactivated”, “peptide-pulsed C1R-A11” for “peptide-pulsed C1R-A33 cell”, “Y et” for “Y et.”
# Specifically, peptide-pulsed C1R-A11 (1×10^4 cells/well) was prepared as the stimulator cell. The induced CTLs, i.e., CTL lines and CTL clones, were used as the responder cell. The IFN-gamma ELISPOT assay and IFN-gamma ELISA were performed according to the manufacturer's manual.
sequence,measurement,setting,value
EVKLEAHIR (a peptide derived from KOC1) [SEQ ID NO: 64],specific CTL activity of CTL clones against target cells expressing KOC1 and HLA-A*3303,[1]; listed as KOC1-A33-9-485,specific CTL activity; also recorded: potent CTL activities
same,specific CTL activity of CTL clones against control cells,[1]; listed as KOC1-A33-9-485,a significant specific CTL activity was not shown; also recorded: a significant specific CTL activity was not detected
same,"peptide-specific CTL activity (IFN-gamma production), ELISPOT",[2],potent IFN-gamma production
same,"IFN-gamma production of CTL clones, ELISA",[3]; listed as KOC1-A33-9-485,Potent IFN-gamma production
same,"IFN-gamma production of CTL lines, ELISA",[3],potent IFN-gamma production
HFYACQVAQR (a peptide derived from KOC1) [SEQ ID NO: 77],specific CTL activity of CTL clones against target cells expressing KOC1 and HLA-A*3303,[1]; listed as KOC1-A33-10-542,specific CTL activity; also recorded: potent CTL activities
same,specific CTL activity of CTL clones against control cells,[1]; listed as KOC1-A33-10-542,a significant specific CTL activity was not shown; also recorded: a significant specific CTL activity was not detected
same,"peptide-specific CTL activity (IFN-gamma production), ELISPOT",[2],potent IFN-gamma production
same,"IFN-gamma production of CTL clones, ELISA",[3]; listed as KOC1-A33-10-542,Potent IFN-gamma production
same,"IFN-gamma production of CTL lines, ELISA",[3],potent IFN-gamma production
KSILEIMHK (a peptide derived from KOC1) [SEQ ID NO: 1],"peptide-specific CTL activity (IFN-gamma production), ELISPOT",[4],no specific IFN-gamma production; also recorded: specific IFN-gamma production was not observed
NFVGRLIGK (a peptide derived from KOC1) [SEQ ID NO: 67],specific CTL activity of CTL clones against target cells expressing KOC1 and HLA-A*3303,[1]; listed as KOC1-A33-9-286,specific CTL activity; also recorded: potent CTL activities
same,specific CTL activity of CTL clones against control cells,[1]; listed as KOC1-A33-9-286,a significant specific CTL activity was not shown; also recorded: a significant specific CTL activity was not detected
same,"peptide-specific CTL activity (IFN-gamma production), ELISPOT",[2],potent IFN-gamma production
same,"IFN-gamma production of CTL clones, ELISA",[3]; listed as KOC1-A33-9-286,Potent IFN-gamma production
same,"IFN-gamma production of CTL lines, ELISA",[3],potent IFN-gamma production
